For data set [1], the target named is T1, human S1P5 receptor (Homo sapiens, UniProt Q9H228).
T1 construct: host or cells: CHO (AequoScreen recombinant cell line, co-expressing mitochondrially targeted apo-aequorin)
Kind of data set: In vitro functional activity (agonism), CHO-human-S1P5-Aequorin assay. It counts as cell-based. The conditions noted are these: read-out: S1P5 pEC50 (converted). From the text:
In Vitro Functional Activity (Agonism) on Human S1P5 Receptors
(§1) The CHO-human-S1P5-Aeqorin assay was bought from Euroscreen, Brussels (Euroscreen, Technical dossier, Human Lysophospholid S1P5 (Edg8) receptor, DNA clone and CHO AequoScreen™ recombinant cell-line, catalog no: ES-593-A, September 2006). Human-S1P5-Aequorin cells express mitochondrial targeted apo-Aequorin. Cells have to be loaded with coelanterazine, in order to reconstitute active Aequorin. After binding of agonists to the human S1P5 receptor the intracellular calcium concentration increases and binding of calcium to the apo-Aequorin/coelenterazine complex leads to an oxidation reaction of coelenterazine, which results in the production of apo-Aequorin, coelenteramide, CO2 and light (λmax 469 nm). This luminescent response is dependent on the agonist concentration. Luminescence is measured using the MicroBeta Jet (Perkin Elmer). Agonistic effects of compounds are expressed as pEC50. Compounds were tested at a 10 points half log concentration range, and 3 independent experiments were performed in single point's measurements.

Data set [2] deals with T2, human S1P3 receptor (Homo sapiens, UniProt Q99500).
T2 construct: cell line established at Solvay Pharmaceuticals; host or cells: CHO K1 (CHO/Gα16/AEQ/h-S1P3)
Briefly: In vitro functional activity (agonism), CHO-human-S1P3-Aequorin assay. It counts as cell-based. The conditions noted are these: read-out: S1P3 pEC50 (converted).
Source text: In Vitro Functional Activity (Agonism) on Human S1P3 Receptors
The CHO-human-S1P3-Aeqorin assay (CHO/Gα16/AEQ/h-S1P3) was established at Solvay Pharmaceuticals. The plasmid DNA coding for the S1P3 receptor (accession number in GenBank NM_005226 was purchased from UMR cDNA resource Centre (Rolla, Mo.). The pcDNA3.1/hS1P3 construct carrying the mitochondrially targeted apo-Aeqorin and Gα16 protein was transfected in CHO K1 cell-line.
as §1, with “Human-S1P3-Aequorin” for “The CHO-human-S1P5-Aeqorin assay was bought from Euroscreen, Brussels (Euroscreen, Technical dossier, Human Lysophospholid S1P5 (Edg8) receptor, DNA clone and CHO AequoScreen™ recombinant cell-line, catalog no: ES-593-A, September 2006). Human-S1P5-Aequorin”, “S1P3” for “S1P5”

Structures can show the parent of a compound that is named as a salt.

The text below walks through data of patent US9273017B2, “(Thio)morpholine derivatives as S1P modulators” (ABBVIE BAHAMAS LIMITED, priority 2009, dated 2016).

For orientation: melting point means the temperature, or range, at which the solid turns liquid.

T2 sequence (Q99500 whole entry): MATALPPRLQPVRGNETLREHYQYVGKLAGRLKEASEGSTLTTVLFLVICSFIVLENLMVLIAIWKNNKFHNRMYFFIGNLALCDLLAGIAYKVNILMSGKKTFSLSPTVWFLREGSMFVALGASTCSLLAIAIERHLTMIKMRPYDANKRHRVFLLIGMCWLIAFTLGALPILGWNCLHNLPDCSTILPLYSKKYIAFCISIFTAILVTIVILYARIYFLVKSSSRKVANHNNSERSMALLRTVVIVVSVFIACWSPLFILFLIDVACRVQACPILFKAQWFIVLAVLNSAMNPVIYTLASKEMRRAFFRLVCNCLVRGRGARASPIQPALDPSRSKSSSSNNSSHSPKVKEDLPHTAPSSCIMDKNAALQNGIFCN
T1 sequence (Q9H228 whole entry): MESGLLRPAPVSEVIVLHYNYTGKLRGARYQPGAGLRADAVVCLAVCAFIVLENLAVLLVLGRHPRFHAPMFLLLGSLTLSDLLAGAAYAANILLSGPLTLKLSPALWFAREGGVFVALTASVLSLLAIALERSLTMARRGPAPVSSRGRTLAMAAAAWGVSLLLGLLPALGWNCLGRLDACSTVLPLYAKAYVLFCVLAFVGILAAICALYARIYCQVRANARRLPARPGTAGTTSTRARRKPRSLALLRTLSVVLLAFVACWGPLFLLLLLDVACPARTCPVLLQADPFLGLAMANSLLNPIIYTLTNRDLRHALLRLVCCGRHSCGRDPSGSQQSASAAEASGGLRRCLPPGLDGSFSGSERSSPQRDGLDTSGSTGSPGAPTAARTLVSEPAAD

Turning to `COc1cc(C2CN(CCC(=O)O)CCO2)ccc1OCc1c(Cl)cccc1Cl.Cl` (stereo not drawn), the melting point fell in the range of 214 to 216 °C.

In the case of `CCCc1ncc(OCCCOc2ccc(C3CN(CCC(=O)O)CCO3)cc2)s1` (stereo not drawn) [Compound 3, 3-(2-{4-[3-(2-Propyl-thiazol-5-yloxy)-propoxy]-phenyl}-morpholin-4-yl)-propionic acid trifluoroacetic acid salt], the EC50 in data set [1] is 10 µM; in data set [2], 15.8 µM.

For `CCCCCCCCSc1ccc(C2CN(CCC(=O)O)CCO2)cc1` (stereo not drawn) [Compound 204, 3-[2-(4-Octylsulfanyl-phenyl)-morpholin-4-yl]-propionic acid Hydrochloride], in data set [1], the EC50 was 0.398 µM.

Consider `CCc1cccc(Cl)c1COc1ccc(C2CN(CCC(=O)O)CCO2)c(C(F)(F)F)c1.Cl` (stereo not drawn), for which the melting point was in the range of 214 to 215 °C.

Turning to `Cc1cc(OCc2ccc(C(C)(C)C)cc2)ccc1C1CN(CCC(=O)O)CCO1` (stereo not drawn) [Compound 127, 3-{2-[4-(4-tert-Butyl-benzyloxy)-2-methyl-phenyl]-morpholin-4-yl}-propionic acid], the EC50 is 0.631 µM in data set [1] and > 10 µM in data set [2].

In turn, `CC(C)c1cc(Cl)c(COc2ccc(C3CN(CCC(=O)O)CCO3)cc2)c(Cl)c1.Cl` (stereo not drawn) registered a melting point of 108 to 110 °C.

For `O=C(O)CCN1CCOC(c2ccc(OC3CCc4ccccc43)cc2)C1` (stereo not drawn) [Compound 219, 3-{2-[4-(Indan-1-yloxy)-phenyl]-morpholin-4-yl}propionic acid], the melting point lay in the range of 124 to 129.5 °C.

Molecule `CCCc1cc(Cl)c(COc2ccc(C3CN(CCC(=O)O)CCO3)cc2)c(Cl)c1.Cl` (stereo not drawn) showed a melting point of 101 to 103 °C.

For `O=C(O)CCN1CCOC(c2ccc(OCc3c(Cl)cccc3Cl)c(C(F)(F)F)c2)C1` (stereo not drawn) [Compound 131, 3-{2-[4-(2,6-Dichloro-benzyloxy)-3-trifluoromethyl-phenyl]-morpholin-4-yl}-propionic acid trifluoroacetic acid salt], the EC50 was 1 µM in data set [1] and > 10 µM in data set [2].

`Cl.O=C(O)CCN1CCSC(c2ccc(OCc3ccccc3Cl)cc2)C1` (stereo not drawn) gave a melting point of 178 to 182 °C.

`COc1cc(C2CN(CCC(=O)O)CCO2)ccc1OCc1c(F)cccc1Cl.Cl` (stereo not drawn) had a melting point of 169 to 171 °C.

For the molecule `Cc1cc(C2CN(CCC(=O)O)CCO2)ccc1OCc1c(F)cccc1Cl` (stereo not drawn) [Compound 144, 3-{2-[4-(2-Chloro-6-fluoro-benzyloxy)-3-methyl-phenyl]-morpholin-4-yl}-propionic acid hydrochloride], the EC50 is 0.631 µM in data set [1] and > 10 µM in data set [2].

Turning to `O=C(O)CCN1CCOC(c2ccc(OCC3CCCCC3)cc2)C1` (stereo not drawn) [Compound 24, 3-[2-(4-Cyclohexylmethoxy-phenyl)-morpholin-4-yl]-propionic acid trifluoroacetic acid salt], the EC50 is 0.631 µM in data set [1] and > 31.6 µM in data set [2].

With `O=C(O)CCN1CCOC(c2ccc(OCc3c(Cl)cccc3Cl)cc2)C1` (single isomer, unassigned; (+)) [Compound 34a, (+)-3-{2-[4-(2,6-Dichloro-benzyloxy)-phenyl]-morpholin-4-yl}-propionic acid hydrochloride], the EC50 in data set [1] was 0.631 µM; in data set [2] it was > 31.6 µM.

For `Cl.O=C(O)CCN1CCOC(c2ccc(OCc3c(Cl)cccc3Cl)cc2C(F)(F)F)C1` (stereo not drawn), the melting point was 195 to 197 °C.

`CCCCCCCCOc1ccc(C2CN(CCP(=O)(O)O)CCO2)cc1` (stereo not drawn) [Compound 137, {2-[2-(4-Octyloxy-phenyl)-morpholin-4-yl]-ethyl}-phosphonic acid]: the EC50 in data set [1] is 0.1 µM; in data set [2] it was 0.501 µM.

As to `Cl.O=C(O)CCN1CCOC(c2ccc(OCc3c(Cl)cccc3OC(F)(F)F)cc2C(F)(F)F)C1` (stereo not drawn), the melting point was 179 to 182 °C.

For the molecule `Cc1cc(OCC2CCC3CC2C3(C)C)ccc1C1CN(CCC(=O)O)CCO1` (stereo not drawn) [Compound 84, 3-{2-[4-(6,6-Dimethyl-bicyclo[3.1.1]hept-2-ylmethoxy)-2-methyl-phenyl]-morpholin-4-yl}-propionic acid], the EC50 in data set [1] was 3.98 µM; in data set [2], > 10 µM.

As to `Cl.O=C(O)CCN1CCOC(c2cccc(OCc3ccccc3Cl)c2)C1` (stereo not drawn), the melting point was 233 to 234 °C.

Regarding `Cc1cc(OCc2cccc(Oc3ccccc3)c2)ccc1C1CN(CCC(=O)O)CCO1` (stereo not drawn) [Compound 92, 3-{2-[2-Methyl-4-(3-phenoxy-benzyloxy)-phenyl]-morpholin-4-yl}-propionic acid], the EC50 is 5.01 µM in data set [1] and > 10 µM in data set [2].

With `O=C(O)CCN1CCOC(c2ccc(OCCCc3cccc(F)c3F)cc2)C1` (stereo not drawn) [Compound 174, 3-(2-{4-[3-(2,3-Difluoro-phenyl)-propoxy]-phenyl}-morpholin-4-yl)-propionic acid hydrochloride], the EC50 in data set [1] is 1.58 µM; in data set [2], 5.01 µM.

On to `CCCCCCCCOc1ccc(C2CN(CCC(=O)O)C(C)(C)CO2)cc1` (stereo not drawn) [Compound 187, 3-[5,5-Dimethyl-2-(4-octyloxy-phenyl)-morpholin-4-yl]-propionic acid hydrochloride], for which the EC50 in data set [1] was 0.794 µM; in data set [2] it was 3.16 µM.

With `Cl.O=C(O)CCN1CCOC(c2ccc(OCc3c(F)cccc3Cl)cc2F)C1` (stereo not drawn), the melting point was 189 to 190 °C.

Consider `Cc1ccc(COc2ccc(C3CN(CCC(=O)O)CCO3)cc2)c(Cl)c1` (stereo not drawn) [Compound 196, 3-{2-[4-(2-Chloro-4-methyl-benzyloxy)-phenyl]-morpholin-4-yl}-propionic acid hydrochloride], for which the EC50 in data set [1] is 1 µM.

`Cl.O=C(O)CCN1CCOC(c2cccc(OCc3ccccc3)c2)C1` (stereo not drawn): the melting point is 222 to 225 °C.

Regarding `CC(C)c1cccc(Cl)c1COc1ccc(C2CN(CCC(=O)O)CCO2)c(C(F)(F)F)c1.Cl` (stereo not drawn), the melting point was 206 to 210 °C.

`Cl.O=C(O)CCN1CCOC(c2ccc(OCc3ccccc3C(F)(F)F)cc2F)C1` (stereo not drawn) registered a melting point of 201 to 201.5 °C.

Take `Cl.O=C(O)CCN1CCOC(c2ccc(OCc3c(Cl)cccc3C(F)(F)F)cc2C(F)(F)F)C1` (stereo not drawn): the melting point was 200 to 201 °C.

Take `Cc1cc(OCc2cccc(OCc3ccccc3)c2)ccc1C1CN(CCC(=O)O)CCO1` (stereo not drawn) [Compound 100, 3-{2-[4-(3-Benzyloxy-benzyloxy)-2-methyl-phenyl]-morpholin-4-yl}-propionic acid]: the EC50 was 3.98 µM in data set [1] and > 10 µM in data set [2].

The molecule `Cl.O=C(O)CCN1CCOC(c2cccc(OCc3c(Cl)cccc3Cl)c2)C1` (stereo not drawn) yielded a melting point of 229 to 230 °C.

In the case of `Cl.O=C(O)CCN1CCOC(c2ccc(OCc3c(Cl)cccc3C3CC3)cc2C(F)(F)F)C1` (stereo not drawn), the melting point lay in the range of 203 to 204 °C.

The molecule `Cl.O=C(O)CCN1CCOC(c2ccc(OCc3cccc(C(F)(F)F)c3)cc2C(F)(F)F)C1` (stereo not drawn) yielded a melting point of 209 to 211 °C.

With `Cl.O=C(O)CCN1CCOC(c2ccc(OCc3ccccc3C(F)(F)F)c(Cl)c2)C1` (stereo not drawn), the melting point lay in the range of 199 to 201 °C.

For the molecule `Cl.O=C(O)CCN1CCOC(c2ccc(OCc3c(F)cccc3Cl)cc2C(F)(F)F)C1` (stereo not drawn), the melting point lay in the range of 171.5 to 172.5 °C.

Take `CC#Cc1cc(Cl)c(COc2ccc(C3CN(CCC(=O)O)CCO3)cc2)c(Cl)c1.Cl` (stereo not drawn): the melting point was in the range of 220 to 224 °C.

As for `O=C(O)CCN1CCOC(c2ccc(OC3COc4ccccc43)cc2)C1` (stereo not drawn) [Compound 221, 3-{2-[4-(2,3-Dihydro-benzofuran-3-yloxy)-phenyl]-morpholin-4-yl}-propionic acid], the melting point was 141.5 to 144.5 °C.
